The values below are quoted from earlier work in US9399657B2, “Chemiluminescent methods and reagents for analyte detection” (priority 2007, dated 2016).

This data set deals with firefly luciferase (Photinus pyralis, UniProt P08659). As to conditions: read-out: IC50 (inhibitor of firefly luciferase bioluminescence reaction).
firefly luciferase, sequence (P08659 whole entry): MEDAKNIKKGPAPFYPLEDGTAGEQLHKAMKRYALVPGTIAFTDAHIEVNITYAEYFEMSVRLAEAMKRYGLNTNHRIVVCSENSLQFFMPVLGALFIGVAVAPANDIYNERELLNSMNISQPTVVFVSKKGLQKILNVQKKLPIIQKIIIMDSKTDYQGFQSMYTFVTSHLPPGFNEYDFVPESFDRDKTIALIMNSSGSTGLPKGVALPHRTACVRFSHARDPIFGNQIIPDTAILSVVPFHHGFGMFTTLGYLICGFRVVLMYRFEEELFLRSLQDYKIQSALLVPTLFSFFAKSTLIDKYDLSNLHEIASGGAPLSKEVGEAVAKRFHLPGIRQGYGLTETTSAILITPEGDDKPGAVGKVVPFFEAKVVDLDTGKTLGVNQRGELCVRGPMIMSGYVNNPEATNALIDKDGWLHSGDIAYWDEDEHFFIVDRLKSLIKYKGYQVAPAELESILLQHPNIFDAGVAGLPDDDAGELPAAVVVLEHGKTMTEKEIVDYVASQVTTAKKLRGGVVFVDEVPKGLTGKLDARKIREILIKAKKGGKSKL

For the molecule `O=C(O)c1csc(-c2nc3ccc(O)cc3s2)n1` [firefly dehydroluciferin], the IC50 (in general, the concentration that inhibits the measured activity by half) is 6 nM.
